IC50 data for 22 molecules are collected here from patent publication US11136329B2, “JAK inhibitors” (Vimalan Biosciences, Inc., priority 2019, dated 2021).

The structures appear in SMILES notation. Some results are limits rather than exact numbers.

Holding throughout (format): biochemical
One experiment addresses JAK2 (Homo sapiens (Human), UniProt O60674). The experiment is described as follows: JAK/TYK2 assay (Kinase Glo luminescence), JAK2. As to conditions: 0.8 nM enzyme, 2 uM ATP, 4 uM pEY, 1 hr. The method in brief: (§1)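 Compound in DMSO was combined with 2× enzyme, then 2× substrate mixture started the reaction, which proceeded for 1-2 hours at 25° C. Kinase Glo reagent was added to stop it and produce luminescence. Wells lacking compound served as the positive control.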
Background: Kinase-Glo measures the ATP left after a reaction by luminescence.

The target of a further experiment is TYK2 (Homo sapiens (Human), UniProt P29597). The experiment can be described thus: JAK/TYK2 assay (Kinase Glo luminescence), TYK2. As to conditions: 9 nM enzyme, 2 uM ATP, 30 uM IRS-1, 1 hr. A digest of the protocol: as §1
TYK2, sequence (P29597 whole entry, species assumed): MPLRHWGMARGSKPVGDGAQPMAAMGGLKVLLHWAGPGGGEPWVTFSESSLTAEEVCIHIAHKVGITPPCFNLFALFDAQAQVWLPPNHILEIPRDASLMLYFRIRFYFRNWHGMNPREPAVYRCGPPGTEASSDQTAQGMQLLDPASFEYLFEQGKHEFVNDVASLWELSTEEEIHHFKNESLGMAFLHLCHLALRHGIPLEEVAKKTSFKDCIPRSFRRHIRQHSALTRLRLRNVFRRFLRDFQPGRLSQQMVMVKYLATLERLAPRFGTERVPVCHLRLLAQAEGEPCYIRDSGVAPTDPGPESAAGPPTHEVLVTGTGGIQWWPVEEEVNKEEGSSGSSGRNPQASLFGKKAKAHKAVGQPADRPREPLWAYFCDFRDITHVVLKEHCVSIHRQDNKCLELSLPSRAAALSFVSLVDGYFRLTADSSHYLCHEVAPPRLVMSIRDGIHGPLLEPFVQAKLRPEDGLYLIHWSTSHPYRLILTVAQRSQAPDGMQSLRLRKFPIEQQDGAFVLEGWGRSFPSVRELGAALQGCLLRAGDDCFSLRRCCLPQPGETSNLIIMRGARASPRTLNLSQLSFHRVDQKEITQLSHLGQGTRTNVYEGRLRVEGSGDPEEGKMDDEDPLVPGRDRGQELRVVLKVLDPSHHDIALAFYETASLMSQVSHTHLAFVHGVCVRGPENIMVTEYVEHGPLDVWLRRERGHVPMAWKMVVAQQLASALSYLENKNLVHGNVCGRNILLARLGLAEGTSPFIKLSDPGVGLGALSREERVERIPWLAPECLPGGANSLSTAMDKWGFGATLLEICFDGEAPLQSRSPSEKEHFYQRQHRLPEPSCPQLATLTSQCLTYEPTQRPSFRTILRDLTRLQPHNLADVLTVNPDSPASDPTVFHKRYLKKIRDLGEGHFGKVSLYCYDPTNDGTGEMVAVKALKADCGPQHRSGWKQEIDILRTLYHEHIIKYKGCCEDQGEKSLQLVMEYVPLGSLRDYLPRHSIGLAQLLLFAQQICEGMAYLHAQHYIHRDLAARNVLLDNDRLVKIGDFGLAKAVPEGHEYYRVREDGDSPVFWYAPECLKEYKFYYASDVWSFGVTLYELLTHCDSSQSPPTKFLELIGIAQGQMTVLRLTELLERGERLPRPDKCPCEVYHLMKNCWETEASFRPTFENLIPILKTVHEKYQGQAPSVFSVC
In a further experiment the target is JAK1 (Homo sapiens (Human), UniProt P23458). The experiment can be described thus: JAK/TYK2 assay (Kinase Glo luminescence), JAK1. As to conditions: 7.5 nM enzyme, 2 uM ATP, 30 uM IRS-1, 1 hr. A digest of the protocol: as §1
JAK1, sequence (P23458 whole entry, species assumed): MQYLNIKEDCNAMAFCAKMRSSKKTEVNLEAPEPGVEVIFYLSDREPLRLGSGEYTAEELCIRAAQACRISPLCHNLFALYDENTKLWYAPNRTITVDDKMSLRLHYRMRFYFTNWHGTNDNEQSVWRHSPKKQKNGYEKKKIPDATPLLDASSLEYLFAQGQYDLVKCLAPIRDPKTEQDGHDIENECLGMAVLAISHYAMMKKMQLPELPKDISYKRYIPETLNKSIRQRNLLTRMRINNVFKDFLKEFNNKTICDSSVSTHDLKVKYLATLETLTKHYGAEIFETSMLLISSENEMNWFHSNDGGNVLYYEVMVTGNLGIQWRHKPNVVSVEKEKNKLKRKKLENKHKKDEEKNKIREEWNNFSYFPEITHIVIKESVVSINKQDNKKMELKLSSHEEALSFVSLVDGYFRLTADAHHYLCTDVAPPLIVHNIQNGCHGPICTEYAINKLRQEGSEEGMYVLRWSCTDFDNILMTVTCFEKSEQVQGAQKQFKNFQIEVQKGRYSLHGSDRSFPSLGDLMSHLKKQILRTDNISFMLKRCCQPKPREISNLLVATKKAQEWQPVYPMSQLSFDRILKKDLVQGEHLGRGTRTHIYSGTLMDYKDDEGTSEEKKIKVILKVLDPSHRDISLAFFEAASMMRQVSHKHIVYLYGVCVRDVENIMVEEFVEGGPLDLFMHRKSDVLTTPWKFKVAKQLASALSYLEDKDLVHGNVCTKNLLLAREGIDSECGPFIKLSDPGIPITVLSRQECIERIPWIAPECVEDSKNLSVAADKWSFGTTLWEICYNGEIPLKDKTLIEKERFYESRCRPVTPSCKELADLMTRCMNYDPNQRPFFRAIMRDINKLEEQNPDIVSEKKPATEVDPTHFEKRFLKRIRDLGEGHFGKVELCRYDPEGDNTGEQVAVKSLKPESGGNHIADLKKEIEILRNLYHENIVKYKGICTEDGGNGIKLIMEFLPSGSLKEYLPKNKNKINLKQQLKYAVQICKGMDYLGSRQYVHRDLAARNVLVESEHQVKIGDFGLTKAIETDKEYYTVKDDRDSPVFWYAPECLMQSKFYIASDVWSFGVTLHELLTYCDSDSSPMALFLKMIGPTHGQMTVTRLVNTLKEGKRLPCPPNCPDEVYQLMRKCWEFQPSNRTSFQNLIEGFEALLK
In another experiment the target is JAK3 (Homo sapiens (Human), UniProt P52333). The experiment is described as follows: JAK/TYK2 assay (Kinase Glo luminescence), JAK3. As to conditions: 1.5 nM enzyme, 2 uM ATP, 4 uM pEY, 1 hr. The method in brief: as §1
JAK3, sequence (P52333 whole entry, species assumed): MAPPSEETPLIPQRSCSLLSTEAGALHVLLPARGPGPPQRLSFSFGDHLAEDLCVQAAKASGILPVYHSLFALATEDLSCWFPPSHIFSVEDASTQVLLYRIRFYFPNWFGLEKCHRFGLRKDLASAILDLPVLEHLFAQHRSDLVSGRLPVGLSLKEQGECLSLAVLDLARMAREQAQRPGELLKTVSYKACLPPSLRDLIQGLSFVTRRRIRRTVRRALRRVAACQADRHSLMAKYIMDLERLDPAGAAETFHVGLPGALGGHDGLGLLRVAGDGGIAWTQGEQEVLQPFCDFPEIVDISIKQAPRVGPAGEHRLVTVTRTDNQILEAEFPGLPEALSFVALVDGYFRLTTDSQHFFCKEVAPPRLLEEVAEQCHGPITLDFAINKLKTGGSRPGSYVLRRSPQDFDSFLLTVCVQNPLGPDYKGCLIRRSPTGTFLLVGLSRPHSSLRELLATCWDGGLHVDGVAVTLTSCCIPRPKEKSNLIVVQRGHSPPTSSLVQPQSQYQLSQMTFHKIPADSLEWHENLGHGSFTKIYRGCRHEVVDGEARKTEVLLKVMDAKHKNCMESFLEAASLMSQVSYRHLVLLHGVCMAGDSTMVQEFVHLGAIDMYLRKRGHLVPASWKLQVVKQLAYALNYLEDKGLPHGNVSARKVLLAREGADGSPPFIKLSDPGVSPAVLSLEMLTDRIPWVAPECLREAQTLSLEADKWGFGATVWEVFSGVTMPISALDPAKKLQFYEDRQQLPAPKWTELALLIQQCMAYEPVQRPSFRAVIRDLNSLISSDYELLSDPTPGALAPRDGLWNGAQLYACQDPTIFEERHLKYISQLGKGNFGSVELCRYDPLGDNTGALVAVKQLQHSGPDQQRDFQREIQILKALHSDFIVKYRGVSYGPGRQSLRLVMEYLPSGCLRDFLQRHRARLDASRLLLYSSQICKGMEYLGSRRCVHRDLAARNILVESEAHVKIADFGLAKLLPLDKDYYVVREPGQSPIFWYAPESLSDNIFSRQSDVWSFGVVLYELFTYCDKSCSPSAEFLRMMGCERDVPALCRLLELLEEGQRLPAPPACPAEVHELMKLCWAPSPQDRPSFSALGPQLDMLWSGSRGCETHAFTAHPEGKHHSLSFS

JAK2, sequence (O60674 whole entry, species assumed): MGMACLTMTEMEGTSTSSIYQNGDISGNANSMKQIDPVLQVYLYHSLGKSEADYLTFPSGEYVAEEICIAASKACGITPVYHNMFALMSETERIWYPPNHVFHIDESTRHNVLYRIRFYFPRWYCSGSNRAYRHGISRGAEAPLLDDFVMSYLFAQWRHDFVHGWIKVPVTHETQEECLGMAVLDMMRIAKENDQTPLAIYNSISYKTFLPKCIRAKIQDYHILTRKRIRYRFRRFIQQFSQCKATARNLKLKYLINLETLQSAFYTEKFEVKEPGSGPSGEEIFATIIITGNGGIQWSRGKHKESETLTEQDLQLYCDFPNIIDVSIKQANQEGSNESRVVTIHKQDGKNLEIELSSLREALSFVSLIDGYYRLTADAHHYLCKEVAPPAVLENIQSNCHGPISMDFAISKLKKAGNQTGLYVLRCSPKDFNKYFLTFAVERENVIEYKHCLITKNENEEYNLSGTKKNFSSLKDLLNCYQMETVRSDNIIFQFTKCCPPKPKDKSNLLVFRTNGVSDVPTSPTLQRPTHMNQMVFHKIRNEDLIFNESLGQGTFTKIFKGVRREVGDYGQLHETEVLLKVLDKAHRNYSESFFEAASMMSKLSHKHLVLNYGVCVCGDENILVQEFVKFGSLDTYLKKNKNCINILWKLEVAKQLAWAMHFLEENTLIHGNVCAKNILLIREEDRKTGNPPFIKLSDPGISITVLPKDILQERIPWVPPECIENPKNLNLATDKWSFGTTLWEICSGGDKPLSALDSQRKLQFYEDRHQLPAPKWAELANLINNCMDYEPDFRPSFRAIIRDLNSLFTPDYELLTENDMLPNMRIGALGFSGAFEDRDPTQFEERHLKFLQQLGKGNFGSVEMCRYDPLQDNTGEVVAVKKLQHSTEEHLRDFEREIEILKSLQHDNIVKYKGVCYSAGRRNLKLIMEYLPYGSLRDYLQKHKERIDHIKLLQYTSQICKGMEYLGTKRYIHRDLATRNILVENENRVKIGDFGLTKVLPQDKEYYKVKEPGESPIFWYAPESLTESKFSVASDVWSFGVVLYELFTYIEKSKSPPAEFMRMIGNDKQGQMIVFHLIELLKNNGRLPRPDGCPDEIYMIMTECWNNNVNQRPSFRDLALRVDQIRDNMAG

Take `CC(C(=O)O)n1cc(Nc2ncc3ccn(C[C@H]4CC[C@H](O)CC4)c3n2)cn1` (stereo partly shown) [Compound 116, 2-(4-((7-(((1r,4r)-4-hydroxycyclohexyl)methyl)-7H-pyrrolo[2,3-d]pyrimidin-2-yl)amino)-1H-pyrazol-1-yl)propanoic acid]: the IC50 against JAK2, at TYK2, against JAK1 and against JAK3 was below 100 nM throughout.

`CCOC(=O)Cn1cc(Nc2ncc3ccn(CC4CCCC4)c3n2)cn1` [Compound 17, ethyl 2-(4-((7-(cyclopentylmethyl)-7H-pyrrolo[2,3-d]pyrimidin-2-yl)amino)-1H-pyrazol-1-yl)acetate]: the IC50 against JAK2, against TYK2, on JAK1 and on JAK3 was below 100 nM throughout.

Consider `CC(C)OC(=O)Cn1cc(Nc2ncc3ccn(C[C@H]4CC[C@H](O)CC4)c3n2)cn1` [Compound 122, isopropyl 2-(4-((7-(((1r,4r)-4-hydroxycyclohexyl)methyl)-7H-pyrrolo[2,3-d]pyrimidin-2-yl)amino)-1H-pyrazol-1-yl)acetate], for which the IC50 at JAK2, against TYK2, against JAK1 and at JAK3 was below 100 nM in each case.

Turning to `CC#CCn1ccc2cnc(Nc3cnn(CC(=O)OCC)c3)nc21` [Compound 23, ethyl 2-(4-((7-(but-2-yn-1-yl)-7H-pyrrolo[2,3-d]pyrimidin-2-yl)amino)-1H-pyrazol-1-yl)acetate], the IC50 is 100 to 1000 nM against JAK2, 100 to 1000 nM against TYK2, 100 to 1000 nM against JAK1 and below 100 nM against JAK3.

`CCOC(=O)Cn1cc(Nc2ncc3ccn(CC4CCCCCC4)c3n2)cn1` [Compound 43, ethyl 2-(4-((7-(cycloheptylmethyl)-7H-pyrrolo[2,3-d]pyrimidin-2-yl)amino)-1H-pyrazol-1-yl)acetate]: the IC50 against JAK2 was below 100 nM; at TYK2 it was below 100 nM; on JAK1, 100 to 1000 nM; at JAK3, below 100 nM.

Regarding `CN1CC[C@@H](OC(=O)Cn2cc(Nc3ncc4ccn(C[C@H]5CC[C@H](O)CC5)c4n3)cn2)C1` [Compound 146, (R)-1-methylpyrrolidin-3-yl 2-(4-((7-(((1r,4r)-4-hydroxycyclohexyl)methyl)-7H-pyrrolo[2,3-d]pyrimidin-2-yl)amino)-1H-pyrazol-1-yl)acetate], the IC50 against JAK2, on TYK2, on JAK1 and on JAK3 was below 100 nM each time.

Consider `CCOC(=O)Cn1cc(Nc2ncc3ccn(C[C@H](CC)C(C)C)c3n2)cn1` [Compound 133, ethyl (R)-2-(4-((7-(2-ethyl-3-methylbutyl)-7H-pyrrolo[2,3-d]pyrimidin-2-yl)amino)-1H-pyrazol-1-yl)acetate], for which the IC50 on JAK2, against TYK2, at JAK1 and against JAK3 was below 100 nM each time.

Consider `CCC(CC)Cn1ccc2cnc(Nc3cnn(CC(=O)OCCN(C)C)c3)nc21` [Compound 103, 2-(dimethylamino)ethyl 2-(4-((7-(2-ethylbutyl)-7H-pyrrolo[2,3-d]pyrimidin-2-yl)amino)-1H-pyrazol-1-yl)acetate], for which the IC50 against JAK2, against TYK2, at JAK1 and on JAK3 was below 100 nM in each case.

Take `CCC(Cn1ccc2cnc(Nc3cnn(CC(=O)OCC(O)CO)c3)nc21)C(C)C` (stereo not shown) [Compound 111, 2,3-dihydroxypropyl 2-(4-((7-(2-ethyl-3-methylbutyl)-7H-pyrrolo[2,3-d]pyrimidin-2-yl)amino)-1H-pyrazol-1-yl)acetate]: the IC50 against JAK2, against TYK2, at JAK1 and against JAK3 was below 100 nM in each case.

Regarding `CC(C)C(Cn1ccc2cnc(Nc3cnn(CC(=O)OCCO)c3)nc21)C(C)C` [Compound 88, 2-hydroxyethyl 2-(4-((7-(2-isopropyl-3-methylbutyl)-7H-pyrrolo[2,3-d]pyrimidin-2-yl)amino)-1H-pyrazol-1-yl)acetate], the IC50 against JAK2, on TYK2, on JAK1 and against JAK3 was below 100 nM each time.

`CCOC(=O)Cn1cc(Nc2ncc3ccn(C[C@@H]4CCC[C@@H](OC)C4)c3n2)cn1` [Compound 131, ethyl 2-(4-((7-(((1R,3R)-3-methoxycyclohexyl)methyl)-7H-pyrrolo[2,3-d]pyrimidin-2-yl)amino)-1H-pyrazol-1-yl)acetate]: the IC50 against JAK2 was below 100 nM; against TYK2 it was below 100 nM; against JAK1, 100 to 1000 nM; on JAK3 it was below 100 nM.

As to `CCC(Cn1ccc2cnc(Nc3cnn(CC(=O)OC[C@H](C)O)c3)nc21)C(C)C` (stereo partly drawn) [Compound 112, (S)-2-hydroxypropyl 2-(4-((7-(2-ethyl-3-methylbutyl)-7H-pyrrolo[2,3-d]pyrimidin-2-yl)amino)-1H-pyrazol-1-yl)acetate], the IC50 at JAK2, against TYK2, against JAK1 and on JAK3 was below 100 nM each time.

For `CCC(Cn1ccc2cnc(Nc3cnn(CC(=O)O[C@@H](C)CO)c3)nc21)C(C)C` (stereo partly drawn) [Compound 105, (S)-1-hydroxypropan-2-yl 2-(4-((7-(2-ethyl-3-methylbutyl)-7H-pyrrolo[2,3-d]pyrimidin-2-yl)amino)-1H-pyrazol-1-yl)acetate], the IC50 at JAK2, against TYK2, against JAK1 and at JAK3 was below 100 nM in each case.

Turning to `CCC(Cn1ccc2cnc(Nc3cnn(CC(=O)OC(C)C)c3)nc21)CC(F)(F)F` (stereo not shown) [Compound 101, isopropyl 2-(4-((7-(2-ethyl-4,4,4-trifluorobutyl)-7H-pyrrolo[2,3-d]pyrimidin-2-yl)amino)-1H-pyrazol-1-yl)acetate], the IC50 against JAK2, on TYK2, at JAK1 and at JAK3 was below 100 nM throughout.

Consider `CC[C@H](Cn1ccc2cnc(Nc3cnn(C(CC(C)(C)O)C(=O)O)c3)nc21)C(C)C` (stereo partly drawn) [Compound 147, 2-(4-((7-((S)-2-ethyl-3-methylbutyl)-7H-pyrrolo[2,3-d]pyrimidin-2-yl)amino)-1H-pyrazol-1-yl)-4-hydroxy-4-methylpentanoic acid], for which the IC50 against JAK2, against TYK2, against JAK1 and against JAK3 was below 100 nM each time.

Regarding `CC[C@H](Cn1ccc2cnc(Nc3cnn(C4CC(C)(C)OC4=O)c3)nc21)C(C)C` (stereo partly drawn) [Compound 144, 3-(4-((7-((S)-2-ethyl-3-methylbutyl)-7H-pyrrolo[2,3-d]pyrimidin-2-yl)amino)-1H-pyrazol-1-yl)-5,5-dimethyldihydrofuran-2(3H)-one], the IC50 at JAK2, on TYK2, against JAK1 and on JAK3 was below 100 nM each time.

As for `CCC(Cn1ccc2cnc(Nc3cnn(CCC(=O)O)c3)nc21)C(C)C` (stereo not shown) [Compound 31, 3-(4-((7-(2-ethyl-3-methylbutyl)-7H-pyrrolo[2,3-d]pyrimidin-2-yl)amino)-1H-pyrazol-1-yl)propanoic acid], the IC50 against JAK2, against TYK2, against JAK1 and against JAK3 was below 100 nM throughout.

Take `CCOC(=O)C(C)(C)n1cc(Nc2ncc3ccn(CC(CC)CC)c3n2)cn1` [Compound 27, ethyl 2-(4-((7-(2-ethylbutyl)-7H-pyrrolo[2,3-d]pyrimidin-2-yl)amino)-1H-pyrazol-1-yl)-2-methylpropanoate]: the IC50 at JAK2, against TYK2, against JAK1 and against JAK3 was below 100 nM each time.

In the case of `CC(C)OC(=O)Cn1cc(Nc2ncc3ccn(C[C@@H](CCN(C)C)C(C)C)c3n2)cn1` [Compound 96, isopropyl (S)-2-(4-((7-(4-(dimethylamino)-2-isopropylbutyl)-7H-pyrrolo[2,3-d]pyrimidin-2-yl)amino)-1H-pyrazol-1-yl)acetate], the concentration for half-maximal inhibition (IC50) at JAK2, against TYK2, at JAK1 and against JAK3 was 100 to 1000 nM throughout.

For `CCOC(=O)Cn1cc(Nc2ncc3ccn(CC4CCCCC4(F)F)c3n2)cn1` (stereo not shown) [Compound 35, ethyl 2-(4-((7-((2,2-difluorocyclohexyl)methyl)-7H-pyrrolo[2,3-d]pyrimidin-2-yl)amino)-1H-pyrazol-1-yl)acetate], the IC50 against JAK2, against TYK2, at JAK1 and against JAK3 was below 100 nM throughout.

As for `CCOC(=O)Cn1cc(Nc2ncc3ccn(C[C@H]4CC[C@H](N)CC4)c3n2)cn1` [Compound 127, ethyl 2-(4-((7-(((1r,4r)-4-aminocyclohexyl)methyl)-7H-pyrrolo[2,3-d]pyrimidin-2-yl)amino)-1H-pyrazol-1-yl)acetate], the IC50 against JAK2, against TYK2, against JAK1 and against JAK3 was below 100 nM each time.

For `CCC(Cn1ccc2cnc(Nc3cnn(CC(=O)OCCC#N)c3)nc21)C(C)C` (stereo not shown) [Compound 92, 2-cyanoethyl 2-(4-((7-(2-ethyl-3-methylbutyl)-7H-pyrrolo[2,3-d]pyrimidin-2-yl)amino)-1H-pyrazol-1-yl)acetate], the IC50 against JAK2, at TYK2, at JAK1 and on JAK3 was below 100 nM each time.

A word on the IC50: it is the concentration that inhibits the measured activity by half. Lower therefore signals greater potency.
